# Structures can show the parent of a compound that is named as a salt. The source made the active and inactive calls. No cut-off for these calls is given here.
# Legend:
# SMMC-7721 [1] = test: Inhibition of epithelial-mesenchymal transition in human SMMC-7721 cells assessed as decrease in TGF-beta1-induced vimentin expression at 0.5 uM incubated for 48 hrs by Western blot analysis; assay type: functional, cell-based
# U-87 MG = test: Antiproliferative activity against human U87 cells assessed as reduction in cell viability incubated for 72 hrs by MTT assay; assay type: functional, cell-based, U-87MG ATCC
# SMMC-7721 [2] = test: Inhibition of epithelial-mesenchymal transition in human SMMC-7721 cells assessed as decrease in TGF-beta1-induced MMP9 expression at 0.5 uM incubated for 48 hrs by Western blot analysis; assay type: functional, cell-based
# HepG2 = test: Antiproliferative activity against human HepG2 cells assessed as reduction in cell viability incubated for 72 hrs by MTT assay; assay type: functional, cell-based; conditions: HepG2, 72 h
# SMMC-7721 [3] = test: Inhibition of epithelial-mesenchymal transition in human SMMC-7721 cells assessed as increase in TGF-beta1 reduced E-cadherin expression at 0.5 uM incubated for 48 hrs by Western blot analysis; assay type: functional, cell-based
# SMMC-7721 [4] = test: Inhibition of epithelial-mesenchymal transition in human SMMC-7721 cells assessed as decrease in TGF-beta1-induced MMP9 expression at 0.5 uM incubated for 48 hrs by immunofluorescence staining based laser-scanning confocal microscope; assay type: functional, cell-based
# SMMC-7721 [5] = test: Inhibition of epithelial-mesenchymal transition in human SMMC-7721 cells assessed as increase in TGF-beta1 reduced E-cadherin expression at 0.5 uM incubated for 48 hrs by Immunofluorescence staining based laser-scanning confocal microscope; assay type: functional, cell-based
# SMMC-7721 [6] = test: Inhibition of epithelial-mesenchymal transition in human SMMC-7721 cells assessed as decrease in TGF-beta1-induced vimentin expression at 0.5 uM incubated for 48 hrs by immunofluorescence staining based laser-scanning confocal microscope; assay type: functional, cell-based
# SMMC-7721 [7] = test: Inhibition of TGF-beta1-induced cell invasion in human SMMC-7721 cells at 0.5 uM incubated for 2 days by crystal violet staining based matrigel transwell migration assay; assay type: functional; conditions: time 2.0 day
# SMMC-7721 [8] = test: Inhibition of TGF-beta1-induced cell migration in human SMMC-7721 cells at 0.5 uM incubated for 24 hrs by wound healing assay relative to control; assay type: functional
# [9] = Antiproliferative activity against human NCI-H1299 cells assessed as reduction in cell viability incubated for 72 hrs by MTT assay; assay type: functional, cell-based; conditions: NCI-H1299, 72 h
# SMMC-7721 [10] = test: Antiproliferative activity against human SMMC-7721 cells assessed as reduction in cell viability incubated for 72 hrs by MTT assay; assay type: functional, cell-based; conditions: SMMC-7721, 72 h
SMILES,inhibition (SMMC-7721 [1]),IC50 (U-87 MG),inhibition (SMMC-7721 [2]),IC50 (HepG2),inhibition (SMMC-7721 [3]),inhibition (SMMC-7721 [4]),inhibition (SMMC-7721 [5]),inhibition (SMMC-7721 [6]),inhibition (SMMC-7721 [7]),inhibition (SMMC-7721 [8]),IC50 [9],IC50 (SMMC-7721 [10])
COc1cccc2c1C(=O)c1c(O)c3c(c(O)c1C2=O)C[C@@](O)(C(=O)CO)C[C@@H]3O[C@H]1C[C@H](N)[C@H](O)[C@H](C)O1 [DOXORUBICIN HYDROCHLORIDE],Active,4.28 µM,Active,2.32 µM,Active,Active,Active,Active,Active,Active,,
Cc1nn(C)c(Oc2cccc(C(F)(F)F)c2)c1/C=N\OCCCCCCOc1cc2oc(=O)cc(C)c2cc1Cl,,23.4 µM,,> 25 µM,,,,,,,> 25 µM,24.8 µM
O=c1[nH]cc(F)c(=O)[nH]1 [FLUOROURACIL],,45.3 µM,,31.7 µM,,,,,,,41.8 µM,
Cc1nn(C)c(Oc2ccc(OC(F)(F)F)cc2)c1/C=N\OCCCCCCOc1cc2oc(=O)cc(C)c2cc1Cl,,9.62 µM,,8.16 µM,,,,,,,11.9 µM,6.35 µM
